Where two headings read alike, the source gives them in different places. No end group written: not given here.
Biological target: T1, GPR103 L14N-termA (Homo sapiens, UniProt Q96P65, L14A)
T1 construct: we used human full-length QRFPR-encoding plasmids; expressed in transfected cells; host or cells: HEK293 cells, pCAGGS vector
T1 sequence (Q96P65 1-431 L14A): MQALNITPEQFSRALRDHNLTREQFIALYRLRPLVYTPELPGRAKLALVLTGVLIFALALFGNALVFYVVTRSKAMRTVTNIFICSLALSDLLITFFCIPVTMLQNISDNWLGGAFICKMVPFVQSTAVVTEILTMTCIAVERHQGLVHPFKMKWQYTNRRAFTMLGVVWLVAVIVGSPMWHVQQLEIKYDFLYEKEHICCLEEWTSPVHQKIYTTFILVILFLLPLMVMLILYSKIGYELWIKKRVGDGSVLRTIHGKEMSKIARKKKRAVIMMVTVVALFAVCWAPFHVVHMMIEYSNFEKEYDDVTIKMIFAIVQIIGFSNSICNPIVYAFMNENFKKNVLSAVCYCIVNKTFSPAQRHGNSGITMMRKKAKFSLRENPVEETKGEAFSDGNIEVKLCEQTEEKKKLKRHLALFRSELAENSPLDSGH
Experiment: TGFα shedding assay; Exp. level WT (1:5)
Assay type: cell-based
Procedure: For the TGFα shedding assay and the flow cytometry analysis, we used human full-length QRFPR-encoding plasmids. Specifically, GPR103 was N-terminally modified with an HA signal sequence followed by a FLAG epitope and then a flexible linker ([…]; the FLAG epitope is underlined) and inserted into the pCAGGS vector. Plasmid encoding GPR103 mutants were generated using Quickchange Site-Directed Mutagensis kit (Agilent).
The TGFα shedding assay was performed as described previously with minor modifications. Plasmid transfection was performed in a 6-well plate with a mixture of 500 ng (per well in a 6-well plate) AP-TGFα-encoding plasmid and 200 ng GPR103-encoding plasmid. After 1-day culture, the transfected cells were harvested by trypsinization, pelleted by centrifugation at 190 × g for 5 min, and washed once with 5 mM HEPES (pH 7.4)-containing Hank’s Balanced Salt Solution (HBSS). After centrifugation, the cells were resuspended in 8 mL of the HEPES-containing HBSS. The cell suspension was seeded in a 96-well culture plate (cell plate) at a volume of 90 μL (per well hereafter) and incubated in a 37 °C incubator with 5% CO2 for 30 min. […] After spinning the cell plates at 190 × g for 2 min, 80 μL of conditioned media was transferred to an empty 96-well plate (conditioned media (CM) plate). Then, 80 μL of AP reaction solution (10 mM p-nitrophenylphosphate (p-NPP), 120 mM Tris-HCl (pH 9.5), 40 mM NaCl, and 10 mM MgCl2) was dispensed into the cell plates and the CM plates. Absorbance at 405 nm of the plates was measured using a microplate reader (SpectraMax 340 PC384, Molecular Devices) before and after 1-h incubation at room temperature. Ligand-induced AP-TGFα release was calculated by subtracting spontaneous AP-TGFα release signal from ligand-induced AP-TGFα release signal. The AP-TGFα release signals were fitted to a four-parameter sigmoidal concentration–response curve, using the Prism 10 software (GraphPad Prism). For each replicate experiment, the pEC50 parameter (negative logarithmic values of EC50 values) of the individual GPR103 mutants were normalized to that of the wild-type GPR103 performed in parallel, and resulting ∆pEC50 values were used to denote ligand response activity of the mutants. […]
Exp. le vel: WT (1:5 0)Exp. le vel: WT (1:5 0)Exp. le vel: WT (1:5 0)Exp. le vel: WT (1:2 0)Exp. le vel: WT (1:2 0)Exp. le vel: WT (1:1 0) […]
L1 4N - t e r mA F2 5N - t e r mA I 2 6N - t e r mA Y 2 9N - t e r mA C 9 82 .5 7A T10 22 .6 1A Exp . l eve l: WT (1 :5)Exp . l evel : >WT (1 :1)Exp. le vel: WT (1:2 0)Exp. le vel: WT (1:2 0)Exp. le vel: WT (1:5 0)Exp . l eve l: WT (1 :1) […]
Exp. le vel: WT (1:1 0)Exp. le vel: WT (1:2 0) C 1 1 83 .2 5AExp. le vel: WT (1:5 0)Exp. le vel: WT (1:5 0)Exp. le vel: WT (1:2 0)Exp . l eve l: WT (1 :5) […]
Exp. le vel: WT (1:5 0)Exp. le vel: WT (1:1 0)Exp. le vel: WT (1:5 0) E203ECL2AExp . l evel : >WT (1 :1)Exp. le vel: WT (1:5 0)Exp. le vel: WT (1:5 0) […]
Exp . l eve l: WT (1 :1) F28Exp. le vel: WT (1:5 0) C 2 8 56 .4 7AExp. le vel: WT (1:2 0) WExp. le vel: WT (1:2 0) F28Exp. le vel: WT (1:5 0)Exp . l evel : >WT (1 :1) […]
Exp. le vel: WT (1:5 0)Exp. le vel: WT (1:5 0) C 3 2 77 .4 8AExp . l eve l: WT (1 :5)Exp . l evel : >WT (1 :1)Exp . l evel : >WT (1 :1) […]
Suppl eme nt ary Figure 1 | Mutational analysis of GPR103. […]
mutants. Data are presented as mean values ± SEM, normally n=3-5; dots), each performed in triplicate. b-d Cell-surface expression (b) and QRFP26-in-duced activation of GPR103 (c, d) were analyzed by the flow cytometry and the TGFα shedding assay, respectively. From the concentration–response curves (a), Emax (c) and ΔpEC50 (d) values relative to the wild type were calculated. Colors in the mutant bars indicate an expression level matching to that of titrated wild type. Statistical analyses were performed using the ordinary one-way ANOVA followed by Dunnett tests with the expression-matched […]

Emax (Exp. #1): 105.09 % WT
Emax (Exp. #2): 97.15 % WT
Emax (Exp. #3): 104.38 % WT
Emax (mean, read-out: Emax): 102%
EC50 (n = 3): 7.59 nM
Emax (n = 3, read-out: Emax): 106 ± 2.1%
Substance: TSGPLGNLAEELNGYSRKKGGFSFRF-NH2 [QRFP26]
